Key:
Human Calpain 1/NS1 = biological target: T1, Human Calpain 1/NS1 (Homo sapiens, UniProt P07384); test: Calpain inhibition, continuous fluorescence (FRET substrate) assay, calpain 1; format: biochemical; conditions: SensoLyte 520 FRET substrate, 25C
T1 sequence (P07384 1-714): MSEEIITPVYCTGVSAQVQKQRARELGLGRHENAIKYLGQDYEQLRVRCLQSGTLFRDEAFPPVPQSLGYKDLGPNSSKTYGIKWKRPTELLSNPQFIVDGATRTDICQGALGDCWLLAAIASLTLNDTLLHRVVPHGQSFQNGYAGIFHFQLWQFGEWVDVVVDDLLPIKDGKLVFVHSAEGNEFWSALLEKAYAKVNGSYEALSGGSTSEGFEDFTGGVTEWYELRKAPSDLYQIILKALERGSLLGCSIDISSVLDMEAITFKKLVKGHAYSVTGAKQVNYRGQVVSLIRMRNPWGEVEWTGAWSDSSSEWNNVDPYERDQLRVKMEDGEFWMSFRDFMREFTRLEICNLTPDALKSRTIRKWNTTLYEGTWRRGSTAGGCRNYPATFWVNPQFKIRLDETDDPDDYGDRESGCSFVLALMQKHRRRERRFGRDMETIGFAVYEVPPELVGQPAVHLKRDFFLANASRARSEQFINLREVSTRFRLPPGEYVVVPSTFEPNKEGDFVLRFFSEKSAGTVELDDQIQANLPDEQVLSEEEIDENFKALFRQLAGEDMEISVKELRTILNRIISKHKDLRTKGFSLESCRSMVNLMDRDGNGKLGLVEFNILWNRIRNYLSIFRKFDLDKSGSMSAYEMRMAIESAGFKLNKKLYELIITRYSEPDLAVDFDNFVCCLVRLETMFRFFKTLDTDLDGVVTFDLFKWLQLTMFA
T1 sequence (P04632 1-268 partner): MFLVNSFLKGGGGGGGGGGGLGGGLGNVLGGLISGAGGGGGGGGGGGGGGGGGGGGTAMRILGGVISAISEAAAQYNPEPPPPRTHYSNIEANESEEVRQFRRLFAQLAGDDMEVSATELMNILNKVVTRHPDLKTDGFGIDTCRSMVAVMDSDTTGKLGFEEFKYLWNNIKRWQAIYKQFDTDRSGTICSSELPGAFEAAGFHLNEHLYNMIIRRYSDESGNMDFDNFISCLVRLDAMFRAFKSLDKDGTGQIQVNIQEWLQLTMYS
Experimental: (§1) Calpain 1, 2, and 9 activity and inhibition thereof was assessed by means of a continuous fluorescence assay. The SensoLyte 520 Calpain substrate (Anaspec Inc) was optimized for detecting calpain activity. This substrate contains an internally quenched 5-FAM/QXLTM 520 FRET pair. Calpains 1, 2, and 9 cleave the FRET substrate into two separate fragments resulting in an increase of 5-FAM fluorescence that is proportional to calpain activity Assays were typically setup in black 384-well plates using automated liquid handling as follows. Calpain assay base buffer typically contains 50 mM Tris, pH 7.5, 100 mM NaCl and 1 mM DTT. Inhibitors were serially diluted in DMSO and used to setup 2× mixtures with calpains in the aforementioned buffer. After incubation at ambient temperature (25C), the reaction was initiated by adding a 2× mix of the fluorescent peptide substrate and CaCl2) (required for in-situ calpain activation) in the same buffer. Reaction progress curve data were typically collected for 10 min using excitation/emission wavelengths of 490 nm/520 nm on SpectraMax i3× or the FLIPR-Tetra plate readers (Molecular Devices Inc). Reaction rates were calculated from progress curve slopes typically over 1-5 min. Dose response curves (rate vs. log inhibitor concentration) were typically fit to a 4-parameter logistic function to extract IC50 values.

Human Calpain 2/NS1 = biological target: T2, Human Calpain 2/NS1 (Homo sapiens, UniProt P17655); test: Calpain inhibition, continuous fluorescence (FRET substrate) assay, calpain 2; format: biochemical; conditions: SensoLyte 520 FRET substrate, 25C
T2 sequence (P17655 1-700): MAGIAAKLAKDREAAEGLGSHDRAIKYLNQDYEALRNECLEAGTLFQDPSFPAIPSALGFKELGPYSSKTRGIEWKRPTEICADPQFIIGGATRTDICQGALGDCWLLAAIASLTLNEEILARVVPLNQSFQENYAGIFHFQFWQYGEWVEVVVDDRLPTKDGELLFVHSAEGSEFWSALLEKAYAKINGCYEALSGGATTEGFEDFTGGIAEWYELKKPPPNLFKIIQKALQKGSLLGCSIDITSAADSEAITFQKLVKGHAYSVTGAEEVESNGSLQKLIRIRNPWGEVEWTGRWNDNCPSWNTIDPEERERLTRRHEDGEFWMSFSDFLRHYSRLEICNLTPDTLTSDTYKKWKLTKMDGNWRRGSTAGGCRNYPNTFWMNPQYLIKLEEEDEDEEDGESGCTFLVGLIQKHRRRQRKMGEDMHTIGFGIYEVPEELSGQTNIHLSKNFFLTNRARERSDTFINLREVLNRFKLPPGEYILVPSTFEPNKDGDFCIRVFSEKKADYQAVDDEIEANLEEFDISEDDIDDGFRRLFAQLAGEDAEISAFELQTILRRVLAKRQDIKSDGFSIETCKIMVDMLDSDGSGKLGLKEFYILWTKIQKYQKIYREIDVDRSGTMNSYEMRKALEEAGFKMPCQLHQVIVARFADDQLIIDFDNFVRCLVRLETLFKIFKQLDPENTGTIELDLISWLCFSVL
T2 sequence (P04632 1-268 partner): T1 sequence (P04632 1-268 partner)
Experimental: as §1

Human Calpain 9/NS1 = biological target: T3, Human Calpain 9/NS1 (Homo sapiens, UniProt O14815); test: Calpain inhibition, continuous fluorescence (FRET substrate) assay, calpain 9; format: biochemical; conditions: SensoLyte 520 FRET substrate, 25C
T3 sequence (O14815 1-690): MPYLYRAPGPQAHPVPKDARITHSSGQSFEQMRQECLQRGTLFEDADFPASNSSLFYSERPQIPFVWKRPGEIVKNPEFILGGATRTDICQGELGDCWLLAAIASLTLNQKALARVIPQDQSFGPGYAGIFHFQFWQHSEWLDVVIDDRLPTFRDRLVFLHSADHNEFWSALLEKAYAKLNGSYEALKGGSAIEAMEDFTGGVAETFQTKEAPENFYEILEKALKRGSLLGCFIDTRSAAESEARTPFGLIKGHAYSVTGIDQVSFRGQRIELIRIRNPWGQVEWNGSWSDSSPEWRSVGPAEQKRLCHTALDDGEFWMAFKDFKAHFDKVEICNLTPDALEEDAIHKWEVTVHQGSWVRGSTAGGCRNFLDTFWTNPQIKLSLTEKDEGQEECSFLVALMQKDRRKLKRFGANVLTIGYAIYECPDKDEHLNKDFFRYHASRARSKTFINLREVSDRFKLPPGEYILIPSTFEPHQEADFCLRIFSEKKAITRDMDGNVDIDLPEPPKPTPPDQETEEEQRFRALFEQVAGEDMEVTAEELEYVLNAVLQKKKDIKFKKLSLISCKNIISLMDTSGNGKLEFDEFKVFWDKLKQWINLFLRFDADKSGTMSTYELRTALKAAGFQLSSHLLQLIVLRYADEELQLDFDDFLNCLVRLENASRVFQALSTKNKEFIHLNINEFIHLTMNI
T3 sequence (P04632 1-268 partner): T1 sequence (P04632 1-268 partner)
Experimental: as §1

[1] = system: Calpain activity in SH-SY5Y cells; test: SH-SY5Y Suc-LLVY-AMC fluorescence assay; format: cell-based; conditions: Homo sapiens; SH-SY5Y cells, 100 uM Suc-LLVY-AMC; read-out: SH-SY5Y + AMC IC50
[2] = system: Calpain activity in SH-SY5Y cells; test: SH-SY5Y spectrin breakdown product (SBDP-150) western blot assay; format: cell-based; conditions: Homo sapiens; SH-SY5Y cells, 25 uM A23187, SBDP-150 western blot; read-out: SH-SY5Y Spectrin IC50

IC50 (Human Calpain 1/NS1)	IC50 (Human Calpain 2/NS1)	IC50 (Human Calpain 9/NS1)	IC50 [1]	IC50 [2]	Compound
< 3 µM	< 3 µM	< 3 µM	> 25 µM		CC(C)n1c(=O)oc2c(-c3nn(C)cc3C(=O)NC(Cc3ccccc3)C(=O)C(N)=O)cccc21 (centres unmarked) [Compound 114, N-(4-AMINO-3,4-DIOXO-1-PHENYLBUTAN-2-YL)-3-(3-ISOPROPYL-2-OXO-2,3-DIHYDROBENZO[D]OXAZOL-7-YL)-1-METHYL-1H-PYRAZOLE-4-CARBOXAMIDE]
< 3 µM	< 3 µM	< 3 µM	> 25 µM		Cn1cc(C(=O)NC(Cc2ccccc2)C(=O)C(N)=O)c(-c2cccc3c2OC(C)(C)O3)n1 (centres unmarked) [Compound 112, N-(4-AMINO-3,4-DIOXO-1-PHENYLBUTAN-2-YL)-3-(2,2-DIMETHYLBENZO[D][1,3]DIOXOL-4-YL)-1-METHYL-1H-PYRAZOLE-4-CARBOXAMIDE]
< 3 µM	< 3 µM	< 3 µM	10 to 25 µM		CONC(=O)C(=O)C(Cc1ccccc1)NC(=O)c1cccnc1-n1ccc(-c2ccccc2)n1 (centres unmarked) [Compound 113, N-(4-(METHOXYAMINO)-3,4-DIOXO-1-PHENYLBUTAN-2-YL)-2-(3-PHENYL-1H-PYRAZOL-1-YL)NICOTINAMIDE]
< 3 µM	< 3 µM	< 3 µM	< 10 µM		Cc1nc(-c2c(F)cccc2F)c(C(=O)NC(Cc2ccccc2)C(=O)C(=O)O)o1 (centres unmarked) [Compound 108, 3-(4-(2,6-DIFLUOROPHENYL)-2-METHYLOXAZOLE-5-CARBOXAMIDO)-2-OXO-4-PHENYLBUTANOIC ACID]
< 3 µM	< 3 µM	< 3 µM		10 to 25 µM	Cn1cc2cccc(-c3nn(C(F)F)cc3C(=O)NC(Cc3ccccc3)C(=O)C(N)=O)c2n1 (centres unmarked) [Compound 77, N-(4-AMINO-3,4-DIOXO-1-PHENYLBUTAN-2-YL)-1-(DIFLUOROMETHYL)-3-(2-METHYL-2H-INDAZOL-7-YL)-1H-PYRAZOLE-4-CARBOXAMIDE]
< 3 µM	< 3 µM	< 3 µM		10 to 25 µM	Cc1nc(-c2c(F)cccc2F)c(C(=O)NC(Cc2ccccc2)C(=O)C(N)=O)o1 (centres unmarked) [Compound 76, N-(4-AMINO-3,4-DIOXO-1-PHENYLBUTAN-2-YL)-4-(2,6-DIFLUOROPHENYL)-2-METHYLOXAZOLE-5-CARBOXAMIDE]
< 3 µM	< 3 µM	< 3 µM	10 to 25 µM		CN(C)NC(=O)C(=O)C(Cc1ccccc1)NC(=O)c1nsnc1-c1ccccc1 (centres unmarked) [Compound 109, N-(4-(2,2-DIMETHYLHYDRAZINEYL)-3,4-DIOXO-1-PHENYLBUTAN-2-YL)-4-PHENYL-1,2,5-THIADIAZOLE-3-CARBOXAMIDE]
< 3 µM	< 3 µM	< 3 µM		< 10 µM	Cc1nc(-c2ccccc2F)c(C(=O)NC(Cc2ccc(F)cc2)C(=O)C(N)=O)o1 (centres unmarked) [Compound 73, N-(4-AMINO-1-(4-FLUOROPHENYL)-3,4-DIOXOBUTAN-2-YL)-4-(2-FLUOROPHENYL)-2-METHYLOXAZOLE-5-CARBOXAMIDE]
3 to 10 µM	< 3 µM	< 3 µM		> 25 µM	Cn1cc(C(=O)NC(Cc2ccccc2)C(=O)C(N)=O)c(-c2cccc3cnn(C)c23)n1 (centres unmarked) [Compound 33, N-(4-AMINO-3,4-DIOXO-1-PHENYLBUTAN-2-YL)-1-METHYL-3-(1-METHYL-1H-INDAZOL-7-YL)-1H-PYRAZOLE-4-CARBOXAMIDE]
< 3 µM	< 3 µM	< 3 µM		10 to 25 µM	NC(=O)C(=O)C(Cc1ccccc1)NC(=O)c1cn(C(F)F)nc1-c1cnc2ccccc2n1 (centres unmarked) [Compound 25, N-(4-AMINO-3,4-DIOXO-1-PHENYLBUTAN-2-YL)-1-(DIFLUOROMETHYL)-3-(QUINOXALIN-2-YL)-1H-PYRAZOLE-4-CARBOXAMIDE]
< 3 µM	< 3 µM	< 3 µM	10 to 25 µM		O=C(O)C(=O)C(Cc1ccccc1)NC(=O)c1nsnc1-c1cccc2c1OC(F)(F)O2 (centres unmarked) [Compound 107, 3-(4-(2,2-DIFLUOROBENZO[D][1,3]DIOXOL-4-YL)-1,2,5-THIADIAZOLE-3-CARBOXAMIDO)-2-OXO-4-PHENYLBUTANOIC ACID]
< 3 µM	< 3 µM	< 3 µM	< 10 µM		NC(=O)C(=O)C(Cc1ccccc1)NC(=O)c1nsnc1-c1cccc2c1CC(=O)N2 (centres unmarked) [Compound 115, N-(4-AMINO-3,4-DIOXO-1-PHENYLBUTAN-2-YL)-4-(2-OXOINDOLIN-4-YL)-1,2,5-THIADIAZOLE-3-CARBOXAMIDE]
3 to 10 µM	3 to 10 µM	> 10 µM	> 25 µM		O=C(NC(Cc1ccccc1)C(=O)CO)c1nsnc1-c1ccccc1 (centres unmarked) [Compound 111, N-(4-HYDROXY-3-OXO-1-PHENYLBUTAN-2-YL)-4-PHENYL-1,2,5-THIADIAZOLE-3-CARBOXAMIDE]
< 3 µM	< 3 µM	< 3 µM	10 to 25 µM		O=C(O)C(=O)C(Cc1ccccc1)NC(=O)c1nsnc1-c1cccc2oc(=O)[nH]c12 (centres unmarked) [Compound 106, 2-OXO-3-4-(2-OXO-2,3-DIHYDROBENZO[D]OXAZOL-4-YL)-1,2,5-THIADIAZOLE-3-CARBOXAMIDO)-4-PHENYLBUTANOIC ACID]

Source: US20210009564A1, “CALPAIN MODULATORS AND THERAPEUTIC USES THEREOF” (BLADE THERAPERTICS, INC., priority 2018, published 2021)
